Values quoted from earlier work as cited in patent US8945626B2, “Preparation of pharmaceutical compositions” (priority 2006, dated 2015).

- solubility in cold water: very slightly soluble
SMILES: CC(=O)Nc1ccc(O)cc1 [Paracetamol, 4-Acetamidophenol]
